The record followed here is ChEMBL document CHEMBL3045344, “Synthesis of d-amino acid peptides and their effect on beta-amyloid aggregation and toxicity in transgenic Caenorhabditis elegans” (Med Chem Res, 2013).

The source made the active and inactive calls. The calls are words filed in the database; no cut-off is given here. Square brackets hold non-standard residues; d marks the D form. Peptide text beside a SMILES is read from it.

The target in assay [1] is Amyloid-beta precursor protein (Homo sapiens) (UniProt P05067). Nature of the assay: Inhibition of amyloid beta (1-42) (unknown origin) aggregation at Abeta42/compound molar ratio of 1:5 after 3 days by turbidity based assay.
For assay [2] the target is unchanged. The assay is described as follows: Inhibition of amyloid beta (1-42) (unknown origin) fibril formation at Abeta42/compound molar ratio of 1:5 after 3 days by thioflavin T fluorescence method.
In assay [3] the test system is Caenorhabditis elegans. Nature of the assay: Increase in survival of transgenic Caenorhabditis elegans CL2006 expressing human amyloid beta42 at 124 ug/ml. The class given is functional, organism-based.
The target of assay [4] is Amyloid-beta precursor protein (Homo sapiens) (UniProt P05067). The assay is described as follows: Binding affinity to amyloid beta (1-42) (unknown origin) assessed as increase in hydrophobic site exposure at Abeta42/compound molar ratio of 1:5 after 3 days by ANS fluorescence analysis.
Assay [5] has the same target. The assay is described as follows: Induction of amyloid beta (1-42) (unknown origin) assembly assessed as mixed fibril and spherical aggregate formation after 3 days by ThT stain based fluorescence microscopy.
Assay [6] shares this target. The assay is described as follows: Stabilization of random coil conformation of amyloid beta (1-42) (unknown origin) after 3 days by CD spectroscopy.
Assay [7] shares this target. Nature of the assay: Inhibition of amyloid beta (1-42) (unknown origin) aggregation at Abeta42/compound molar ratio of 1:1 after 3 days by turbidity based assay.
The target is the same in assay [8]. The assay is described as follows: Inhibition of amyloid beta (1-42) (unknown origin) oligomer formation after 48 hr by silver staining.
Assay [9] shares this target. Nature of the assay: Binding affinity to amyloid beta (1-42) (unknown origin) assessed as increase in hydrophobic site exposure at Abeta42/compound molar ratio of 1:1 after 3 days by ANS fluorescence analysis.
The target is the same in assay [10]. The assay is described as follows: Inhibition of amyloid beta (1-42) (unknown origin) fibril formation at Abeta42/compound molar ratio of 1:1 after 3 days by thioflavin T fluorescence method.
Assay [11] has the same target. Nature of the assay: Induction of amyloid beta (1-42) (unknown origin) aggregation at Abeta42/compound molar ratio of 1:5 after 3 days by turbidity based assay.
For assay [12] the target is unchanged. Nature of the assay: Induction of amyloid beta (1-42) (unknown origin) aggregation at Abeta42/compound molar ratio of 1:1 after 3 days by turbidity based assay.
Assay [13] shares this target. The assay is described as follows: Inhibition of amyloid beta (1-42) (unknown origin) assembly assessed as decrease in fibril formation after 3 days by ThT stain based fluorescence microscopy.
Assay [14] relates to Caenorhabditis elegans. Nature of the assay: Increase in survival of transgenic Caenorhabditis elegans CL2006 expressing human amyloid beta42 at 123 ug/ml. It counts as functional, organism-based.
The target in assay [15] is Amyloid-beta precursor protein (Homo sapiens) (UniProt P05067). Nature of the assay: Induction of amyloid beta (1-42) (unknown origin) oligomer formation after 48 hr by silver staining.

Amyloid-beta precursor protein (Homo sapiens), sequence (P05067 whole entry): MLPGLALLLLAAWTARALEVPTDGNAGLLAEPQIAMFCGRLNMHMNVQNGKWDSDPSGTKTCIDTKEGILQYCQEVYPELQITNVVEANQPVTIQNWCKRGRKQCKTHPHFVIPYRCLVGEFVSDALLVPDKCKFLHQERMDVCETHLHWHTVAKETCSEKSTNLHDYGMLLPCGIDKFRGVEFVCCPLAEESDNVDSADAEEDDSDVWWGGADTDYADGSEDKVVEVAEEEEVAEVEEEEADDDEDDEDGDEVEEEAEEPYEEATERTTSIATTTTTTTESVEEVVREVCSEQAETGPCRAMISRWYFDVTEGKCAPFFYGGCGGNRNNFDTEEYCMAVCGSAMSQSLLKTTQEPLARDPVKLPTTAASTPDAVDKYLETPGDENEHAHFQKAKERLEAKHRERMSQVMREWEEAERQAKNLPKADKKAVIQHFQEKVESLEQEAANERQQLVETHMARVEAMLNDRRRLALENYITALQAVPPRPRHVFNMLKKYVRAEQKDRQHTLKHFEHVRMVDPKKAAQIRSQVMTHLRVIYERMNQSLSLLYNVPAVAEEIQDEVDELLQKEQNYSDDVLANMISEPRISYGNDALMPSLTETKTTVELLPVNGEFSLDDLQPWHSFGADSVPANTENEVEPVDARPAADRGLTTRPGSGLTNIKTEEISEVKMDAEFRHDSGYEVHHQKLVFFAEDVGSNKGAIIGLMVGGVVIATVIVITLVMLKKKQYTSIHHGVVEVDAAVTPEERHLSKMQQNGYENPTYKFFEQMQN

Consider `CC(C)C[C@@H](NC(=O)[C@@H](CCCCN)NC(=O)CNC(=O)[C@H]1CCCN1)C(=O)N[C@@H](C(=O)N[C@H](Cc1ccc(O)cc1)C(=O)N[C@H](C)C(=O)O)C(C)C`, for which the inhibition entry in assay [1], in assay [7] and in assay [8] was “Active” in each case. Further, the inhibition entry in assay [2] and in assay [10] was “inactive” each time. Further, the result (in the assay on Caenorhabditis elegans [3]; in assay [4]; in assay [5]; in assay [6]; in [9]) was Active.
Take `CC(C)C[C@@H](NC(=O)[C@@H](CCCCN)NC(=O)[C@H](N)CCCCN)C(=O)N[C@@H](C(=O)N[C@H](Cc1ccccc1)C(=O)N[C@H](Cc1ccccc1)C(=O)N[C@H](C)C(=O)O)C(C)C` (H-[dK][dK][dL][dV][dF][dF][dA]-OH): the outcome (in [11]; in the assay on Caenorhabditis elegans [3]; in [4]; in [12]; in assay [6]; in assay [9]) was Active. Further, the inhibition entry in assay [2], in [8], in assay [13] and in assay [10] was “Active” in each case.
For the compound `CC(C)C[C@@H](NC(=O)[C@@H](CCCCN)NC(=O)[C@H](N)CCCCN)C(=O)N[C@@H](C(=O)N[C@H](Cc1ccccc1)C(=O)N[C@H](Cc1ccccc1)C(=O)N[C@H](C)C(=O)N[C@H](CCCNC(=N)N)C(=O)N[C@H](CCCNC(=N)N)C(=O)N[C@H](CCCNC(=N)N)C(=O)N[C@H](CCCNC(=N)N)C(=O)N[C@H](C)C(=O)O)C(C)C`, the outcome in assay [11], in assay [4], in assay [12], in [6], in assay [9] and in [15] was Active. In addition, the inhibition entry in [2], in assay [13] and in assay [10] was “Active” each time. Also, the outcome in the assay with Caenorhabditis elegans [14] was inactive.
